Results taken from patent US20050049197A1, “Induction of immune response against desired determinants” (Epimmune Inc., priority 1993, published 2005).

How the values were obtained:
[1] = target: DR1 (Homo sapiens, UniProt P01903+P01911, A100R/D57E/F55L/F60I/F76Y/I96L/L162R/M171V/P40L/Q125E/R42F/V115G/Y59C); experiment: biochemical; type: binding
[2] = test system: DR2w2b; parameters: species or system human; details: read-out: Binding Activity DR2wB2, IC50
[3] = target: DR4w4 (Homo sapiens, UniProt P01903+P01911, A100K/A169T/F76Y/I96L/K127E/L162R/M171V/N62H/P40V/Q125Y/R42H/S133A/S149N/S66Y/V115G/V209L/W38E); experiment: biochemical; type: binding
[4] = test system: DR5; parameters: species or system human; details: read-out: Binding Activity DR5, IC50
[5] = test system: DQ3.1; parameters: species or system human; details: read-out: Binding Activity DQ3.1, IC50
[6] = test system: PBMC from normal individuals; experiment: In vitro T cell proliferative responses of human PBMC ([3H]thymidine incorporation); type: cell-based; details: for AVERAGE S.I. / AVERAGE ΔMAX CPM: average of 5 donors; for X144 (Δmax cpm) / X144 S.I.: donor X144; for X162 (Δmax cpm) / X162 S.I.: donor X162; for X349 (Δmax cpm) / X349 S.I.: donor X349; for X372 (Δmax cpm) / X372 S.I.: donor X372; for X460 (Δmax cpm) / X460 S.I.: donor X460
[7] = test system: DR3; parameters: species or system human; details: read-out: Binding Activity DR3, IC50
[8] = target: DRw53 (Homo sapiens, UniProt P01903+P13762); experiment: biochemical; type: binding
[9] = target: IAk (Mus musculus, UniProt P01910+P06343); experiment: biochemical
[10] = test system: P. falciparum sporozoites; experiment: Inhibition of liver stage development assay (ILSDA), human hepatocytes infected with P. falciparum sporozoites; type: cell-based; details: sera of C57BL/6 mice immunized with peptide in CFA/IFA, final dilution 1:100
Protocol: (§1) In certain experiments, peptides were emulsified in complete Freund's adjuvant (CFA) and injected subcutaneously (S.C.) at the base of the tail in 100 μl volume containing 100 μg of peptide. Mice were boosted with 100 μg of peptide emulsified in 100 μl of incomplete Freund's adjuvant (IFA) 1 month later. Mice were bled just prior to boosting, and 2 weeks after boosting.
Human hepatocytes were isolated from nontransplantable liver tissue donated for research. […] The hepatocytes were allowed to attach and spread overnight with the media being changed the following day.
(§2) The 17XNL (nonlethal) strain of P. yoelii or the NF54 strain of P. falciparum were used for murine and human hepatocyte in vitro infections, respectively.
(§3) Briefly, 25 μl of the serum samples, diluted to 2× their final concentration, were added to triplicate chamber-slide wells. P. yoeilli or P. falciparum sporozoites, 75,000/well, were then added in a volume of 25 μl to the mouse or human hepatocyte cultures respectively. The cultures were incubated for 3 h, then washed extensively with fresh medium to remove unattached sporozoites. The infected hepatocytes were then incubated for a further 2 (P. yoelii) or 5 days (P. falciparum) with the medium being changed each day of culture. The slides were fixed and immunostained with either a P. yoelii- or P. falciparum-specific monoclonal antibody. Schizonts were counted from the triplicate cultures and the percent inhibition determined as follows: control−test/control×100. Sera from mice injected with CFA (first dose) and IFA (second and third doses) served as the negative controls.

[11] = test system: P. yoelii sporozoites; experiment: Inhibition of liver stage development assay (ILSDA), mouse hepatocytes infected with P. yoelii sporozoites; type: cell-based; details: sera of immunized mice, mouse hepatocytes
Protocol: as §1
All cell culture reagents were obtained from quality Biological, Gaithersburg, Md. The slides were incubated overnight at 37° C. in a 5% CO2/95% air environment. The medium was changed the following day and fresh medium containing dexamethasone (7×10^−5) was added to the cultures.
as §2, §3

[12] = test system: P. yoelii 17XNL sporozoites; details: in vivo
[13] = test system: air-dried P. yoelii sporozoites; details: in vivo

CC(C)C[C@H](NC(=O)[C@@H](NC(=O)[C@H](Cc1c[nH]c2ccccc12)NC(=O)[C@H](C)NC(=O)[C@H](C)NC(=O)[C@@H](NC(=O)[C@H](CC1CCCCC1)NC(=O)[C@H](CCCCN)NC(=O)[C@@H](C)N)C(C)C)[C@@H](C)O)C(=O)N[C@@H](CCCCN)C(=O)N[C@@H](C)C(=O)N[C@@H](C)C(=O)N[C@H](C)C(N)=O [965.10]
IC50 [1]: 1.2 nM | IC50 [2]: 5.6 nM | IC50 [3]: 2.8 nM | IC50 [4]: 11.1 nM | IC50 [5]: 25 nM | AVERAGE S.I. ([6]; 2nd Stimulation): 3.9 | AVERAGE ΔMAX CPM ([6]; 2nd Stimulation): 25767 cpm | X144 (Δmax cpm) ([6]; 2nd Stimulation): 11663 cpm | X144 S.I. ([6]; 2nd Stimulation): 1.8 | X162 (Δmax cpm) ([6]; 2nd Stimulation): 20693 cpm | X162 S.I. ([6]; 2nd Stimulation): 7.9 | X349 (Δmax cpm) ([6]; 2nd Stimulation): 22133 cpm | X349 S.I. ([6]; 2nd Stimulation): 3.5 | X372 (Δmax cpm) ([6]; 2nd Stimulation): 44414 cpm | X372 S.I. ([6]; 2nd Stimulation): 3.2 | X460 (Δmax cpm) ([6]; 2nd Stimulation): 29933 cpm | X460 S.I. ([6]; 2nd Stimulation): 3.3 | AVERAGE S.I. ([6]; 3rd Stimulation): 11.5 | AVERAGE ΔMAX CPM ([6]; 3rd Stimulation): 31002 cpm | X144 (Δmax cpm) ([6]; 3rd Stimulation): 33159 cpm | X144 S.I. ([6]; 3rd Stimulation): 14 | X162 (Δmax cpm) ([6]; 3rd Stimulation): 34548 cpm | X162 S.I. ([6]; 3rd Stimulation): 11 | X349 (Δmax cpm) ([6]; 3rd Stimulation): 38931 cpm | X349 S.I. ([6]; 3rd Stimulation): 3.5 | X372 (Δmax cpm) ([6]; 3rd Stimulation): 36995 cpm | X372 S.I. ([6]; 3rd Stimulation): 15 | X460 (Δmax cpm) ([6]; 3rd Stimulation): 11376 cpm | X460 S.I. ([6]; 3rd Stimulation): 15

CC(C)C[C@H](NC(=O)[C@@H](NC(=O)[C@H](CCCCN)NC(=O)[C@H](C)NC(=O)[C@H](C)NC(=O)[C@@H](NC(=O)[C@H](CC1CCCCC1)NC(=O)[C@H](CCCCN)NC(=O)[C@@H](C)N)C(C)C)[C@@H](C)O)C(=O)N[C@@H](CCCCN)C(=O)N[C@@H](C)C(=O)N[C@@H](C)C(=O)N[C@H](C)C(N)=O [965.14]
IC50 [2]: 8 nM | IC50 [7]: 781 nM | IC50 [3]: 7.4 nM | IC50 [4]: 3.4 nM | IC50 [8]: 52.8 nM | IC50 [5]: > 10000 nM | AVERAGE S.I. ([6]; 2nd Stimulation): 1.5 | AVERAGE ΔMAX CPM ([6]; 2nd Stimulation): 5523 cpm | X144 (Δmax cpm) ([6]; 2nd Stimulation): 3570 cpm | X144 S.I. ([6]; 2nd Stimulation): 1.1 | X162 (Δmax cpm) ([6]; 2nd Stimulation): 4655 cpm | X162 S.I. ([6]; 2nd Stimulation): 2.1 | X349 (Δmax cpm) ([6]; 2nd Stimulation): 4421 cpm | X349 S.I. ([6]; 2nd Stimulation): 1.3 | X372 (Δmax cpm) ([6]; 2nd Stimulation): 10608 cpm | X372 S.I. ([6]; 2nd Stimulation): 1.4 | X460 (Δmax cpm) ([6]; 2nd Stimulation): 4365 cpm | X460 S.I. ([6]; 2nd Stimulation): 1.4 | AVERAGE S.I. ([6]; 3rd Stimulation): 2 | AVERAGE ΔMAX CPM ([6]; 3rd Stimulation): 10583 cpm | X144 (Δmax cpm) ([6]; 3rd Stimulation): 4319 cpm | X144 S.I. ([6]; 3rd Stimulation): 2.3 | X162 (Δmax cpm) ([6]; 3rd Stimulation): 10734 cpm | X162 S.I. ([6]; 3rd Stimulation): 1.7 | X349 (Δmax cpm) ([6]; 3rd Stimulation): 17849 cpm | X349 S.I. ([6]; 3rd Stimulation): 2 | X372 (Δmax cpm) ([6]; 3rd Stimulation): 19140 cpm | X372 S.I. ([6]; 3rd Stimulation): 2.1 | X460 (Δmax cpm) ([6]; 3rd Stimulation): 874 cpm | X460 S.I. ([6]; 3rd Stimulation): 2

CC[C@H](C)[C@H](NC(=O)CNC(=O)[C@H](Cc1ccc(O)cc1)NC(=O)[C@H](CC(=O)O)NC(=O)[C@@H](NC(=O)[C@H](CO)NC(=O)CNC(=O)[C@H](CC(=O)O)NC(=O)[C@@H](NC(=O)[C@H](CC(N)=O)NC(=O)[C@@H](N)Cc1ccc(O)cc1)[C@@H](C)O)[C@@H](C)O)C(=O)N[C@@H](CC(C)C)C(=O)N[C@@H](CCC(N)=O)C(=O)N[C@H](C(=O)N[C@@H](CC(N)=O)C(=O)N[C@@H](CO)C(=O)N[C@@H](CCCNC(=N)N)C(=O)O)[C@@H](C)CC [HEL 46-61]
IC50 [9]: 20 nM

G(QGPGAP)4 [PyB]
Mean schizonts/well ± S.D. [10]: 70 ± 14 schizonts/well | % Inhibition ([11]; dilution 1:100): 50% | Mean schizonts/well + S.D. ([11]; dilution 1:100): 41 + 3.8 schizonts/well | % Inhibition ([11]; dilution 1:200): 43.2% | Mean schizonts/well + S.D. ([11]; dilution 1:200): 46 + 4 schizonts/well | % Protected [12]: 12.5% | Infected/challenged [12]: 7/8 | levels of antibodies against sporozoites and the PyCSP (immunogenicity, in words) [13]: poorly immunogenic
